Test results from the METLIN SMRT retention time set (Domingo-Almenara et al. 2019).

Assay: gradient 5% acetonitrile 3 min, to 50% in 2 min, to 85% in 15 min, held 3 min, 100 µL/min
Conditions: column: Zorbax Extend-C18 2.1 x 50 mm; eluents: water / acetonitrile, 0.1% formic acid
In short: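 Mixtures of ~100 pure standards were chromatographed on a Zorbax Extend-C18 column (2.1 × 50 mm, 1.8 μm) at 100 μL/min using water and acetonitrile, each with 0.1% formic acid. Detection used a quadrupole time-of-flight mass spectrometer in positive and negative ionization mode, and data collection spanned 3 months. Retention time was obtained from adduct peaks picked computationally and each checked manually.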

Structure (SMILES) | RP-LC retention time
CCc1cccc(C)c1Nc1c(-c2cccc(O)c2)nc2cnccn12 | 750 s
Cc1nn(CC(=O)NC(C)C)c(=O)c2nc(-c3ccccc3)sc12 | 733 s
CC(C)c1ccc(NC(=O)Cn2cnc3nc(N4CCCC(C(=O)NC5CC5)C4)sc3c2=O)cc1 (centres undefined) | 754 s
COc1ccc(-c2nnc(N3CCC(C(=O)NC(C)c4ccc(OC)cc4)CC3)o2)cc1 (centres undefined) | 815 s
Nc1c(C(=O)Nc2ccccc2F)sc2nc3c(cc12)CCCC3 | 996 s
COc1cccc2c(C)nc(NC3=NCN(Cc4ccc5c(c4)OCO5)CN3)nc12 | 700 s
CCn1ncc(NC(=O)COc2ccc(F)cc2)c(N2CCCCC2)c1=O | 793 s
CCN(Cc1c(C)nn(CC)c1C)C(=O)Cn1nc2n(c1=O)CCC(N)CC2 (centres undefined) | 551 s
O=C(Cc1cccs1)NCCn1ncc2c(=O)n(Cc3ccccc3F)cnc21 | 666 s
CCS(=O)(=O)N1CC(=O)N(c2ccc(C)c(C)c2)C(C)(C(=O)NCc2ccc(F)cc2)C1 (centres undefined) | 846 s
Cc1noc(C)c1Cc1ccc(C(=O)N2CCC3(CCC3O)CC2)o1 (centres undefined) | 698 s
Cc1cc(NS(=O)(=O)c2cn(CC(C)C)c3ncccc23)ccc1F | 989 s
COc1ccc(OC)c(-c2cn3ccn(-c4ccc(Br)cc4)c(=O)c3n2)c1 | 912 s
COC1CN(c2cccc(F)c2)C12CCN(Cc1cccc(F)c1)CC2 (centres undefined) | 761 s
CCOC(=O)C1CCN(C(c2ccc(C)cc2)c2c(O)cc(C)n(CC)c2=O)CC1 (centres undefined) | 725 s
CC(C)CCC(=O)N1CCN(c2nc(CN3CCC(C)CC3)cs2)CC1 | 671 s
CN1C(=O)c2cc(C(=O)N3CCCCCC3)nn2CC1(C)C(=O)NC1CCCC1 (centres undefined) | 714 s
COCCN1CC2(CCN(S(=O)(=O)c3ccc(C)cc3)CC2)C1c1ccccc1 (centres undefined) | 693 s
Cc1ccc(=O)n(CCNC(=O)c2cncc(Br)c2)n1 | 579 s
CCN1CCN(S(=O)(=O)c2cc(-c3[nH]ncc3C(=O)N3CCCC3)oc2C)CC1 | 577 s
C=CCNC(=O)c1cc2n(n1)CCCC2 | 646 s
COc1cc(CNC(=O)c2cn3cc(C)ccc3n2)cc(OC)c1 | 604 s
Cc1ccc(CNC(=O)C2CCN(c3cnc4nccnc4c3)CC2)cc1 | 705 s

Structure (SMILES) | RP-LC retention time
CCCNC(=O)NCCC1CCN(S(=O)(=O)c2ccc(F)cc2)CC1 | 771 s
COc1ccc(CNC(=O)C2(C)CCN(S(=O)(=O)c3cccc(Cl)c3C)CC2)cc1 | 1030 s
CCCc1nnc(SCC(=O)NC2CCCCCC2)n1-n1cccc1 | 831 s
CCCN(CC1CCOC1)C(=O)Nc1c(C)cccc1C (centres undefined) | 791 s
O=S(=O)(c1cccc(-c2nc(-c3ccccc3)no2)c1)N1CCc2ccccc21 | 1320 s
COCCOC1CN(C2CCN(Cc3ccccc3C#N)CC2)C12CCCCC2 (centres undefined) | 572 s
CCCn1cc(CCNC(=O)Nc2cc(C)cc(C)c2)c2cccnc21 | 736 s
CC(C)n1cc(C2=CCN(S(=O)(=O)Cc3ccccc3)CC2)c2cccnc21 | 1020 s
COC(=O)Nc1nc2ccc(Br)cc2[nH]1 | 642 s
O=C(Nc1ccccc1NC(=O)c1ccc(Br)o1)c1cccnc1 | 669 s
CCN1C(=O)c2cc(C(=O)Nc3ccc(C)c(C)c3)nn2CC1(C)C(=O)NC1CCCC1 (centres undefined) | 884 s
CCOC(=O)C1=C(CN2CCN(C(C)CC)CC2)NC(=O)NC1c1ccc(Cl)cc1 (centres undefined) | 663 s
CNC(=O)c1sc2nc(-c3cccc(OC)c3)c(NC(C)(C)C)n2c1C | 780 s
C=CCNC(=O)c1cn(-c2ccc(-c3nc(C(C)C)no3)cn2)cn1 | 824 s
O=C(Cn1nc(N2CCOCC2)c2ccccc2c1=O)Nc1ccc(F)c(F)c1 | 796 s
Cc1ccc(CNC(=O)C2(C)CCCN(C(=O)Nc3ccc(F)cc3)C2)cc1 (centres undefined) | 899 s
O=C(NC1CCCCCCC1)C1CCN(C(=O)c2cc(-c3cccnc3)n[nH]2)CC1 | 651 s
CCCCN(C)C(=O)C1CCCCc2nnc(C(C)C)n21 (centres undefined) | 666 s
Cc1nc(Nc2ccc(Br)cn2)sc1C(=O)N1CCN(C)CC1 | 606 s
Cc1ccc(NC(=O)N2C[C@H](c3nc(-c4cccnc4)no3)[C@@H](C)C2)cc1 | 820 s
COc1ccc(OC)c(CNC(=O)C2CCN(S(=O)(=O)c3ccc4c(c3)NC(=O)CO4)CC2)c1 | 721 s
O=C(c1ccsc1)N1CCCN(c2cc(-c3ccccc3)[nH]n2)CC1 | 741 s
Cc1c(Cl)cccc1S(=O)(=O)N1CCc2nc(-c3ccccc3)ncc2C1 | 1210 s

Structure (SMILES) | RP-LC retention time
CCCc1nc2cccnc2n1C1CCN(C(=O)Nc2cccc(OC)c2)C1 (centres undefined) | 617 s
COc1ccc2nc(NC(=O)C3CCN(C(=O)C4Sc5ccccc5NC4=O)CC3)sc2c1 (centres undefined) | 775 s
O=C(Cn1nc(N2CCCCCC2)c2ccccc2c1=O)NCc1ccc(F)cc1 | 1040 s
O=C(COc1ccc(Cl)cc1Cl)Nc1c(-c2ccccc2)nc2ccccn12 | 738 s
CCN(CC)S(=O)(=O)c1ccc2c(c1)N(CC(=O)NCc1ccc(C)o1)C(=O)C1CCCCN21 (centres undefined) | 959 s
CCc1ccc(S(=O)(=O)N2CCC(n3cnnc3C)CC2)cc1 | 715 s
CC(C)CNC(=O)C1CCCN(c2ncnc3c2oc2ccccc23)C1 (centres undefined) | 725 s
CCOC(=O)c1c(C)[nH]c(C(=O)N2CCCC(C(=O)NCCc3ccco3)C2)c1C (centres undefined) | 781 s
COc1ccc(OC)c(-c2cc(C(=O)Nc3ccc4c(c3)CCC(=O)N4)[nH]n2)c1 | 681 s
O=S(=O)(c1cccn2cnnc12)N(Cc1cccc(F)c1)c1ccc(F)c(F)c1 | 866 s
Nc1cc(C2CCN(C(=O)Cc3c(F)cccc3Cl)CC2)no1 | 723 s
Cc1noc(-c2ccc(OC3CN(C(=O)c4sccc4C)C3)cc2)n1 | 900 s
CCOc1nc2ccccc2nc1N1CCCC(C(=O)Nc2ccc(Br)cc2F)C1 (centres undefined) | 1390 s
COc1cc(NC(=O)N2CCC(n3c(C)nc4cccnc43)CC2)cc(OC)c1OC | 569 s
CC1=C(c2ccc(Cl)cc2)S(=O)(=O)N=C1N1CCCN(C(=O)c2ccsc2)CC1 | 843 s
Cc1ccc(OCc2ccc(-c3nc(C#N)c(NCCCN(C)C)o3)o2)cc1 | 717 s
Nc1ccc(N2C(=O)c3ccccc3C2=O)c(Cl)c1 | 884 s
COC(=O)N1CCc2ccc(Br)cc2C1C(=O)Nc1ccon1 (centres undefined) | 785 s
O=C1COc2ccc(-c3csc(NC(=O)c4ccc(Cl)cc4)n3)cc2N1 | 899 s
CC(C)c1nc2cc3c(cc2n1CC(=O)Nc1ccc2c(c1)OCCO2)OCCO3 | 654 s
Cc1cc(C)c2c(N(C)C)nc(C(=O)Nc3ccc(N4CCOCC4)cc3)nc2n1 | 595 s
COC(=O)c1cccc(NC(=O)N2CCSc3ncccc32)c1 | 739 s
Cc1ccc(CNC(=O)C2CCN(C(=O)c3nn(C)c4c3CN(C(=O)C(C)C)CC4)CC2)cc1 | 702 s

Structure (SMILES) | RP-LC retention time
N#Cc1ccc(C(=O)Nc2cnc(N3CCCCCC3)nc2)cc1 | 891 s
O=C(NCc1ccc(Cl)cc1)C1CCN(C(=O)c2ncn3c2COC(c2ccccc2)C3)CC1 (centres undefined) | 802 s
CCOc1ccc(N2C=C(C(=O)N3CCCC3)S(=O)(=O)c3ccc(Cl)cc32)cc1 | 930 s
COc1ccc(-c2nc3cnccn3c2Nc2ccc(Cl)cc2)cc1 | 896 s
CSc1ccc(-c2noc(Cn3nc(-c4ccccc4)ccc3=O)n2)cc1 | 1040 s
COc1ccc(S(=O)(=O)N2CCCC(C(=O)Nc3cccc(C)c3)C2)cc1Cl (centres undefined) | 1060 s
CCNC(=O)c1nc(C(=O)NCc2ccc(F)c(Cl)c2)cs1 | 819 s
CCn1c(=O)c2ccn(CC(=O)Nc3ccc(Cl)cc3)c2n(CC)c1=O | 747 s
O=S(=O)(Nc1cccn2cnnc12)c1ccc2c(c1)CCC2 | 736 s
O=C(NCc1ccccc1C(F)(F)F)C1=C2CCCN2c2ccccc2S1(=O)=O | 916 s
Cc1ccc(C)c(-c2cc3c(=O)n(Cc4nc(-c5ccccc5Cl)no4)ncn3n2)c1 | 1220 s
O=S(=O)(c1ccc2c(c1)OCCO2)N1CC[C@@H]2COCCN(Cc3cccnc3)[C@@H]2C1 | 629 s
CC(C)Oc1ccc(CNC(=O)C2CCN(c3cnc4nccnc4c3)CC2)cc1 | 683 s
O=C(NC1CCCC1)c1nc(C(=O)N2CCN(c3cccc(Cl)c3)CC2)cs1 | 1020 s
Cc1nc2cc(-c3noc(/C=C/c4ccco4)n3)ccc2o1 | 1010 s
Cc1cccc(-c2noc(CN3C(=O)C(C)Oc4ccccc43)n2)c1 (centres undefined) | 1110 s
CCn1cc(S(=O)(=O)N2[C@H]3CC[C@@H]2c2cnc(-c4ccccc4)nc2C3)cn1 | 868 s
CCn1nccc1-c1cccc(-c2noc(CNC(=O)Cc3ccccc3)n2)c1 | 855 s
COc1ncccc1CNC(=O)c1sccc1C | 746 s
CCOCC(=O)N1CCCC(c2nc(CNC(=O)C3CCC3)cs2)C1 (centres undefined) | 645 s
